Patent US20190071416A1, “COMPOUNDS FOR TREATMENT OF CANCER AND EPIGENETICS” (Agency For Science, Technology and Research, priority 2015, published 2019)

Molecular target: T1, SMYD3 (Homo sapiens, UniProt Q9H7B4)
T1 sequence (Q9H7B4 1-428): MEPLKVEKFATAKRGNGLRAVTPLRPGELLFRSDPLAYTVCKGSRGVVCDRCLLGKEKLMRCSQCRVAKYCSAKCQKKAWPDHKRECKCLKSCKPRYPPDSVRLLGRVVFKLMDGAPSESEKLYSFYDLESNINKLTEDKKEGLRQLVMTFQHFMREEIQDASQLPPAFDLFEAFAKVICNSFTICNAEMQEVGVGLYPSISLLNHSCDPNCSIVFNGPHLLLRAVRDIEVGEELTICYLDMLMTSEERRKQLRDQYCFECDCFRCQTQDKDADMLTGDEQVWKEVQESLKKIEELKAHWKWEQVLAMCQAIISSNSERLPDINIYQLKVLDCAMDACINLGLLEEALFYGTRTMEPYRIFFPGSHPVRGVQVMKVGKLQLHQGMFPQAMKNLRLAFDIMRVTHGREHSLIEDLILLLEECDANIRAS
Experiment: SMYD3 biochemical assay (MTase-Glo, MAP3K2 peptide substrate)
Settings: Table 3; MTase assay, MAP3K2 peptide substrate; read-out: IC50
Experimental: A SMYD3 enzymatic assay was developed using Promega's Methyltransferase-Glo™ reagents. In the assay, SMYD3 catalyzes the methylation of the MAP3K2 peptide substrate by transferring a methyl group from SAM to MAP3K2 peptide and further converts the SAM to SAH. The SMYD3 methyltransferase activity is measured based on the amount of SAH produced from the reaction through the use of coupling enzymes that convert the SAH to ATP. The MTase-Glo detection solution then catalyzes the formation of light from ATP.
A final concentration of 1.0 μM and 10 μM SAM and MAP3K2 peptide were added and further incubated for 30 min at room temperature before adding the MTase Glo and detection reagent. Reaction signals were detected using microplate readers on luminescent mode (Safire Tecan). The IC50 was determined by non-linear regression, using GraphPad Prism version, 5.03.

Row | SMILES | IC50 [µM]
1 | CCCOC(=O)N1CCN(C(=O)c2ccc3c(Cl)cc(-c4ccc(F)c(OC)c4)nc3c2)C[C@H]1C [B088, Propyl (R)-4-(4-chloro-2-(4-fluoro-3-methoxyphenyl)quinoline-7-carbonyl)-2-methylpiperazine-1-carboxylate] | 0.014
2 | CCCOC(=O)N1CCN(C(=O)c2ccc3c(Cl)cc(-c4ccc(C(F)(F)F)cc4)nc3c2)CC1 [B066, Propyl 4-(4-chloro-2-(4-(trifluoromethyl)phenyl)quinoline-7-carbonyl)piperazine-1-carboxylate] | 3.7
3 | CCCOC(=O)N1CCN(C(=O)c2ccc3c(Cl)c4c(nc3c2)CC(c2ccnc(C#N)c2)CC4)C[C@H]1C (stereo partly drawn) [A140, Propyl (2R)-4-(9-chloro-6-(2-cyanopyridin-4-yl)-5,6,7,8-tetrahydroacridine-3-carbonyl)-2-methylpiperazine-1-carboxylate] | 0.42
4 | CCCOC(=O)N1CCN(C(=O)c2ccc3c(Cl)cc(-c4ccc(CNC)cc4)nc3c2)C[C@H]1C [B119, Propyl (R)-4-(4-chloro-2-(4-((methylamino)methyl)phenyl)quinoline-7-carbonyl)-2-methylpiperazine-1-carboxylate] | 0.042
5 | CCCOC(=O)N1CCN(C(=O)c2ccc3c(Cl)cc(-c4cnn(CC(F)(F)F)c4)nc3c2)CC1 [B274, Propyl 4-(4-chloro-2-(1-(2,2,2-trifluoroethyl)-1H-pyrazol-4-yl)quinoline-7-carbonyl)piperazine-1-carboxylate] | 0.21
6 | CCCOC(=O)N1CCN(C(=O)c2ccc3c(Cl)cc(-c4ccc(CN)c(C)c4)nc3c2)CC1 [B108, Propyl 4-(2-(4-(aminomethyl)-3-methylphenyl)-4-chloroquinoline-7-carbonyl)piperazine-1-carboxylate] | 0.12
7 | CCCOC(=O)N1CCN(C(=O)c2ccc3c(Cl)cc(-c4ccc(F)c(C(=O)N(C)C)c4)nc3c2)CC1 [B154, Propyl 4-(4-chloro-2-(3-(dimethylcarbamoyl)-4-fluorophenyl)quinoline-7-carbonyl)piperazine-1-carboxylate] | 2.29
8 | CCCCC(=O)N1CCN(C(=O)c2ccc3c(Cl)ccnc3c2)CC1 [B226, 1-(4-(4-chloroquinoline-7-carbonyl)piperazin-1-yl)pentan-1-one] | 7.9
9 | CCCOC(=O)N1CCN(C(=O)c2ccc3c(Cl)c4c(nc3c2)CC(c2ccncn2)CC4)CC1 (stereo not drawn) [A134, Propyl 4-(9-chloro-6-(pyrimidin-4-yl)-5,6,7,8-tetrahydroacridine-3-carbonyl)piperazine-1-carboxylate] | 0.14
10 | CCCOC(=O)N1CCN(C(=O)c2ccc3c(Cl)cc(-c4cccc(CO)c4)nc3c2)C[C@H]1C [B142, Propyl (R)-4-(4-chloro-2-(3-(hydroxymethyl)phenyl)quinoline-7-carbonyl)-2-methylpiperazine-1-carboxylate] | 0.055
11 | CCCOC(=O)N1CCN(C(=O)c2ccc3c(Cl)cc(-c4ccc(O)c(C)c4)nc3c2)C[C@H]1C [B218, Propyl (R)-4-(4-chloro-2-(4-hydroxy-3-methylphenyl)quinoline-7-carbonyl)-2-methylpiperazine-1-carboxylate] | 0.22
12 | CCCOC(=O)N1CCN(C(=O)c2ccc3c(Cl)c4c(nc3c2)CCCC4)C(C#N)C1 (stereo not drawn) [A116, Propyl 4-(9-chloro-5,6,7,8-tetrahydroacridine-3-carbonyl)-3-cyanopiperazine-1-carboxylate] | 0.21
13 | CNC(=O)c1ccc(-c2cc(Cl)c3ccc(C(=O)N4CCN(C(=O)OCC(C)C)CC4)cc3n2)cc1 [B245, Isobutyl 4-(4-chloro-2-(4-(methylcarbamoyl)phenyl)quinoline-7-carbonyl)piperazine-1-carboxylate] | 1.01
14 | CCCOC(=O)N1CCN(C(=O)c2ccc3c(Cl)cc(-c4ccc(CN)cc4)nc3c2)C[C@H]1C [B064, Propyl (R)-4-(2-(4-(aminomethyl)phenyl)-4-chloroquinoline-7-carbonyl)-2-methylpiperazine-1-carboxylate] | 0.057
15 | CCCOC(=O)N1CCN(C(=O)c2ccc3c(Cl)c4c(nc3c2)CC(CCN(C)C)CC4)C[C@@H]1C (stereo partly drawn) [A136, Propyl (2S)-4-(9-chloro-6-(2-(dimethylamino)ethyl)-5,6,7,8-tetrahydroacridine-3-carbonyl)-2-methylpiperazine-1-carboxylate] | 0.069
16 | CCCOC(=O)N1CCN(C(=O)c2ccc3c(Cl)cc(-c4ccc(F)c(CO)c4)nc3c2)CC1 [B150] | 0.28
17 | CCCOC(=O)N1CCN(C(=O)c2ccc3c(Cl)cc(-c4cnc5[nH]c(C)cc5c4)nc3c2)CC1 [B175, Propyl 4-(4-chloro-2-(2-methyl-1H-pyrrolo[2,3-b]pyridin-5-yl)quinoline-7-carbonyl)piperazine-1-carboxylate] | 0.4

Row | SMILES | IC50 [µM]
18 | CCCOC(=O)N1CCN(C(=O)c2ccc3c(Cl)c4c(nc3c2)CCCC4)CC1C(=O)OC (stereo not drawn) [A042, 2-Methyl 1-propyl 4-(9-chloro-5,6,7,8-tetrahydroacridine-3-carbonyl)piperazine-1,2-dicarboxylate] | 5.2
19 | CNC(=O)c1ccc(-c2cc(Cl)c3ccc(C(=O)N4CCN(C(=O)OCCF)CC4)cc3n2)cc1 [B247, 2-Fluoroethyl 4-(4-chloro-2-(4-(methylcarbamoyl)phenyl)quinoline-7-carbonyl)piperazine-1-carboxylate] | 7.4
20 | CCCOC(=O)N1CCN(C(=O)c2ccc3c(Cl)cc(-c4cccc(N(C)C)c4)nc3c2)CC1 [B058, Propyl 4-(4-chloro-2-(3-(dimethylamino)phenyl)quinoline-7-carbonyl)piperazine-1-carboxylate] | 1.47
21 | CCCOC(=O)N1C(C)CN(C(=O)c2ccc3c(Cl)c4c(nc3c2)CCCC4)CC1C (stereo not drawn) [A020, Propyl 4-(9-chloro-5,6,7,8-tetrahydroacridine-3-carbonyl)-2,6-dimethylpiperazine-1-carboxylate] | 0.35
22 | CCCOC(=O)N1CCN(C(=O)c2ccc3c(Cl)c4c(nc3c2)CC(c2cccnc2)CC4)CC1 (stereo not drawn) [A027, Propyl 4-(9-chloro-6-(pyridin-3-yl)-5,6,7,8-tetrahydroacridine-3-carbonyl)piperazine-1-carboxylate] | 0.4
23 | CCCOC(=O)N1CCN(C(=O)c2ccc3c(Cl)cc(-c4cnc(N)nc4)nc3c2)CC1 [B185, Propyl 4-(2-(2-aminopyrimidin-5-yl)-4-chloroquinoline-7-carbonyl)piperazine-1-carboxylate] | 0.87
24 | CCCOC(=O)N1CCN(C(=O)c2ccc3c(Cl)c4c(nc3c2)CCCC4C#N)CC1 (stereo not drawn) [A026, Propyl 4-(9-chloro-8-cyano-5,6,7,8-tetrahydroacridine-3-carbonyl)piperazine-1-carboxylate] | 3.2
25 | CCCOC(=O)N1CCN(C(=O)c2ccc3c(Cl)c(F)c(-c4ccn(C)c4)nc3c2)CC1 [B262, Propyl 4-(4-chloro-3-fluoro-2-(1-methyl-1H-pyrrol-3-yl)quinoline-7-carbonyl)piperazine-1-carboxylate] | 0.39
26 | CCCOC(=O)N1CCN(C(=O)c2ccc3c(Cl)cc(-c4ccc(NC(C)=O)cc4)nc3c2)C[C@H]1C [B121, Propyl (R)-4-(2-(4-acetamidophenyl)-4-chloroquinoline-7-carbonyl)-2-methylpiperazine-1-carboxylate] | 0.055
27 | CCCOC(=O)N1CCN(C(=O)c2ccc3c(Cl)cc(-c4cc(F)c(C(N)=O)c(F)c4)nc3c2)CC1 [B253, Propyl 4-(2-(4-carbamoyl-3,5-difluorophenyl)-4-chloroquinoline-7-carbonyl)piperazine-1-carboxylate] | 0.49
28 | CCCOC(=O)N1CCN(C(=O)c2ccc3c(Cl)cc(-c4ccc(N5CCN(C)CC5)cc4)nc3c2)C[C@H]1C [B095, Propyl (R)-4-(4-chloro-2-(4-(4-methylpiperazin-1-yl)phenyl)quinoline-7-carbonyl)-2-methylpiperazine-1-carboxylate] | 0.056
29 | CCCOC(=O)N1CCN(C(=O)c2ccc3c(Cl)cc(C4CC4)nc3c2)C[C@H]1C [B079, Propyl (R)-4-(4-chloro-2-cyclopropylquinoline-7-carbonyl)-2-methylpiperazine-1-carboxylate] | 0.06
30 | CCCOC(=O)N1CCN(C(=O)c2ccc3c(Cl)cc(-c4cccc(C(=O)N(C)C)c4)nc3c2)CC1 [B102, Propyl 4-(4-chloro-2-(3-(dimethylcarbamoyl)phenyl)quinoline-7-carbonyl)piperazine-1-carboxylate] | 0.53
31 | CC(C)COC(=O)N1CCN(C(=O)c2ccc3c(Cl)c4c(nc3c2)CCCC4)CC1 [A021, Isobutyl 4-(9-chloro-5,6,7,8-tetrahydroacridine-3-carbonyl)piperazine-1-carboxylate] | 0.84
32 | CCCOC(=O)N1CCN(C(=O)c2ccc3c(Cl)c4c(nc3c2)CC(c2ccnc(C#N)n2)CC4)CC1 (stereo not drawn) [A148, Propyl 4-(9-chloro-6-(2-cyanopyrimidin-4-yl)-5,6,7,8-tetrahydroacridine-3-carbonyl)piperazine-1-carboxylate] | 0.3
33 | CCCOC(=O)N1CCN(C(=O)c2ccc3c(Cl)cc(-c4ccc(CF)cc4)nc3c2)[C@@H](C)C1 [B161, Propyl (S)-4-(4-chloro-2-(4-(fluoromethyl)phenyl)quinoline-7-carbonyl)-3-methylpiperazine-1-carboxylate] | 0.33
